Measurements taken from US12637415B2, “Lyophilized composition comprising (s)-isopropyl 2-((s)-2-acetamido-3-(1H-indol-3-yl)propanamido)-6-diazo-5-oxohexanoate for intravenous administration and the use thereof” (DRACEN PHARMACEUTICALS, INC., priority 2019, dated 2026).

Legend:
Format in all cases: physicochemical
[1] = Study Number 3: in-use stability in polyolefin containers after 50% ethanol reconstitution, 4 hour hold plus 1 hour infusion (HPLC)
Experimental: (§1) The purity and concentration of Compound 1 as measured by HPLC were determined during a 5 hour test period while the drug product was held in a non-DEHP (polyolefin) clinical containers over a range of concentrations in 500 mL containers. Admixed containers were delivered with an […] infusion set by holding the infusion bag with diluted test article for 4 hours prior to a 1 hour infusion to assess in use stability over a total of 5 hours to mimic clinical practice. The parameters of the study were: • Compound 1 dose: 6 mg and 120 mg in 500 mL • Concentration range: 0.012-0.24 mg/mL Compound 1 • Container size: 500 mL • Diluent: 0.9% normal saline, USP • Stability time points: 0 hours, 4 hours (pre-infusion), 5 hours (post-1 hour infusion) • Storage condition: room temperature (15-25° C.) • Container composition: non-DEHP (polyolefin) • Light conditions: amber IV bag covers to limit UV exposure • Reconstitution: 50% (v/v) ethanol for reconstitution of the lyophilate, followed by dilution into normal saline.

[2] = Holding of compounded sterile filtered pre-lyophilization solutions (precipitation); conditions: for Precipitation in held pre-lyophilization solution: 24 h; for Precipitation post filtration: vials stored at 17° C., 20° C., 22° C., or 25° C. for 24 h
Experimental: Experiments were conducted to study the compounding and holding of pre-lyophilization solutions comprising Compound 1.
Vials of the compounded sterile filtered pre-lyophilization solutions were held at 17° C., 20° C., 22° C., and 25° C.

[3] = Compounding (dissolution) of pre-lyophilization solutions comprising Compound 1
Experimental: Third, Compound 1 was dissolved in the solution at 30° C. After dissolution, the solution was cooled to room temperature (20-22° C.). Experiments were conducted to study the compounding and holding of pre-lyophilization solutions comprising Compound 1.

[4] = Study Number 1: in-use stability diluted in normal saline in PVC containers (HPLC purity and concentration, 24 hour); conditions: for Time stable at room temperature: 0.012-0.3 mg/mL diluted in normal saline in PVC containers
Experimental: The purity and concentration of Compound 1 as measured by HPLC were determined during a 24 hour test period while the drug product was held in its diluted state in normal saline in a polyvinyl chloride (PVC) clinical containers over a range of concentrations in 500 mL bags. The parameters of the study were: • Compound 1 dose: 6 mg and 150 mg in 500 mL • Concentration range: 0.012-0.3 mg/mL Compound 1 • Container size: 500 mL • Diluent: 0.9% normal saline, USP • Stability time points: 0, 4, 8, 24 hours • Storage condition: room temperature (15-25° C.) • Container composition: polyvinyl chloride • Light conditions: ambient light vs amber IV bag covers to limit UV exposure • Reconstitution: 80% (v/v) ethanol for reconstitution of the lyophilate, followed by dilution into normal saline.

[5] = Study Number 2: in-use stability in PVC and polyolefin containers, 4 hour hold plus 1 hour infusion (HPLC)
Experimental: as §1, with “in polyvinyl chloride (PVC) and non-PVC,” for “in a”, “and 150” for “and 120”, “range: 0.012-0.3” for “range: 0.012-0.24”, “composition: polyvinyl chloride and non-PVC,” for “composition:”, “conditions: ambient light vs” for “conditions:”, “Reconstitution: 80%” for “Reconstitution: 50%”

Appearance of diluted samples ([1]; 0.012-0.24 mg/mL in normal saline, polyolefin, room temperature, through 5 hours, 50% ethanol reconstitution): remained clear
Impurity testing (HPLC) ([1]; all time points (0, 4, 5 hours), polyolefin, amber cover): no impurities at any time point
Time stable at room temperature ([1]; followed by a 1 hour infusion, amber shroud, polyolefin containers, PVC or low-sorb tubing, 0.012-0.24 mg/mL in normal saline): up to 4 hours
Precipitation in held pre-lyophilization solution ([2]; 17° C., 10 mg/mL): remain free of precipitation
Precipitation in held pre-lyophilization solution ([2]; 17° C., 12.5 mg/mL): remain free of precipitation
Time to precipitation of pre-lyophilization solution ([2]; 17° C., 15 mg/mL): occurs within 1 h at 15 mg/mL.
Precipitation post filtration (observed or not) ([2]; Exp 4: 15 mg/mL, sterile filtered, vial held at 17° C., at 1 h): observed in vial held
Precipitation post filtration ([2]; Exp 5: 12.5 mg/mL): No precipitation
Precipitation post filtration ([2]; Exp 6: 10 mg/mL): No precipitation
Dissolution time ([3]; Exp 2: excipients and Compound 1 15 mg/mL at 25° C., single vessel): >6.5 h (estimated at
Dissolution time (estimated) ([3]; Exp 2: excipients and Compound 1 15 mg/mL at 25° C., single vessel, estimated): ~9.5 h
Dissolution of Compound 1 in ethanol and t-butanol (organic dissolution) ([3]; Exp 3: 15 mg/mL, two vessels (separate aqueous and organic), 25° C. stepped up to 35° C.): remains as solid even at
Dissolution time ([3]; Exp 3: 15 mg/mL, two vessels, after mixing aqueous and organic portions, held at the temperature of the organic phase): 1.25 h
Dissolution time ([3]; Exp 4: excipients and Compound 1 15 mg/mL at 30° C., single vessel): Dissolution time: 5 h
Dissolution time ([3]; Exp 5: excipients and Compound 1 12.5 mg/mL at 30° C., single vessel): 3.66 h
Dissolution time ([3]; Exp 6: excipients and Compound 1 10 mg/mL at 30° C., single vessel): 1.75 h
Appearance of diluted samples ([4]; 0.012-0.3 mg/mL in normal saline, PVC, room temperature, through 24 hours): remained clear
Time stable at room temperature ([4]; amber covered shroud protected from light): up to 24 hours
Time stable at room temperature ([4]; ambient light): up to 8 hours
Appearance of diluted samples ([5]; 0.012-0.3 mg/mL in normal saline, PVC and polyolefin, room temperature, through 5 hours): remained clear
Time stable at room temperature ([5]; followed by a 1 hour infusion, amber shroud, polyolefin containers, low-sorb tubing, 0.012-0.3 mg/mL in normal saline): up to 4 hours
SMILES: CC(=O)N[C@@H](Cc1c[nH]c2ccccc12)C(=O)N[C@@H](CCC(=O)C=[N+]=[N-])C(=O)OC(C)C [Compound 1, (S)-isopropyl 2-((S)-2-acetamido-3-(1H-indol-3-yl)propanamido)-6-diazo-5-oxohexanoate]
Impurity testing (HPLC) ([4]; ambient light vs amber cover, 0-24 hours, PVC container): greater impurities under ambient light with an increase in impurities observed over the course of the experiment
Impurity testing (HPLC) ([5]; ambient light vs amber cover, 4 hours and 1 hour post infusion compared to baseline): greater impurities under ambient light with an increase in impurities observed over the course of the experiment
